According to patent publication US12617818B2, “Compositions and methods for modulating myosin subfragment-2 coiled coil stability and methods for using them” (UNIVERSITY OF NORTH TEXAS, priority 2020, dated 2026):

Test system: rabbit skeletal myosin (myosin S2 coiled coil)
Assay: GFS with rabbit skeletal myosin tethered by S1 heads to G-actin
Format: biochemical
Description: To test stability and flexibility of myosin S2 peptide two different types of conjugation was performed to tether the molecule between the immobile edge and mobile edge. First conjugation was crosslinking the muscle myosin S2 peptides to immobile edge and mobile bead. A different conjugation was benefiting from the binding property of actin to myosin S1. Rabbit skeletal myosin molecule at myosin S1 position was bound with G-actin treated immobile edge and mobile bead.
This conjugation was done by first, treating glass coverslips and silica beads with 0.04% 3-aminopropyltriethoxylsilane in acetone to add the aminosilane groups to both glass coverslips and silica beads. To cross link G-actin to the aminosilanated glass coverslips and silica beads 740 mM 1-ethyl-3-(3 dimethyaminopropyl) carbodiimide was used with help of 60 μM N-hydroxysuccinamide. To block any unreacted group, glycine quenching solution was added. Lastly, both glass coverslips and silica beads went over several washes with low salt buffer and were stored in the same low salt buffer for GFS experiments.
The point of attachment to tether myosin molecule between immobile edge of the coverslip and mobile beads, was at the acto-myosin S1 binding region. The edge of the coverslips and silica beads are coated with G-actin molecules. […]

## CSCC[C@H](NC(=O)[C@H](CCC(=O)O)NC(=O)[C@H](CCCNC(=N)N)NC(=O)[C@H](CCC(=O)O)NC(=O)[C@H](CC(=O)O)NC(=O)[C@H](CCC(=O)O)NC(=O)[C@H](CC(C)C)NC(=O)[C@H](CCCNC(=N)N)NC(=O)[C@H](CCC(=O)O)NC(=O)[C@H](CC(N)=O)NC(=O)[C@H](CCSC)NC(=O)[C@@H](N)CCC(=O)O)C(=O)N[C@@H](CCCCN)C(=O)N[C@@H](C)C(=O)N[C@@H](CCC(=O)O)C(=O)N[C@@H](CC(C)C)C(=O)N[C@H](C(=O)N[C@@H](C)C(=O)N[C@@H](CCCCN)C(=O)O)[C@@H](C)O [Destabilizer]
Destabilizer peptide vs control
  force required to uncoil myosin relative to absence of peptide (less): 1.6 times
Length 100 nm, in presence of destabilizer peptide
  Force required to uncoil the myosin molecule: 3.09±0.05 pN
